Values of other authors, collected in paper PMC9762682, “Tocotrienols: Exciting Biological and Pharmacological Properties of Tocotrienols and Naturally Occurring Compounds, Part II” (Annals of clinical case reports, 2022).
Like-named read-outs stand apart in the source and are kept apart here. Marks after values point to notes of the source that are not given here. One block for each compound: values may come before it.

Tests used:
Pancreas cancer cells = test system: Pancreas cancer cells; set-up: method as in PMID 29606130; value at effective dose: unit not given here; settings: for effective dose / percentage of control at effective dose / value at effective dose: 48 h
Liver cancer cells = test system: Liver cancer cells; set-up: method as in PMID 29606130; value at effective dose: unit not given here; settings: for effective dose / percentage of control at effective dose / value at effective dose: 48 h
B-Lymphocyte cells = test system: B-Lymphocyte cells; set-up: method as in PMID 29606130; value at effective dose: unit not given here;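 for IC50: anti-proliferation of cancer cells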
Breast cancer cells = test system: Breast cancer cells; set-up: method as in PMID 29606130; value at effective dose: unit not given here;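 for IC50: anti-proliferation of cancer cells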
Prostate cancer cells = test system: Prostate cancer cells; set-up: method as in PMID 29606130; value at effective dose: scale not given here; settings: for effective dose / percentage of control at effective dose / value at effective dose: 48 h;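 for IC50: anti-proliferation of cancer cells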
TNF-α [1] = settings: LPS-induced macrophages of wild type (C57BL/6) control group
T-cells (Jurkat) = test system: T-cells (Jurkat); set-up: method as in PMID 29606130; value at effective dose: unit not given here
TNF-α [2] = settings: LPS-induced macrophages of PPAR-α knockout female mice
Hela cells = test system: Hela cells; set-up: method as in PMID 29606130; value at effective dose: unit not given here; settings: for effective dose / percentage of control at effective dose / value at effective dose: 48 h;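 for IC50: anti-proliferation of cancer cells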
Lung cancer cells = test system: Lung cancer cells; set-up: method as in PMID 29606130; value at effective dose: unit not given here
Melanoma cells = test system: Melanoma cells; set-up: method as in PMID 29606130
[3] = set-up: method as in ref 16 = [16]; PMID 27493840; doi:10.4172/2155-9880.1000434; 16. Qureshi AA , Khan DA , Silswal N , Saleem S , Qureshi N . Evaluation of pharmacokinetics and bioavailability of higher doses of δ-tocotrienol in healthy fed humans . J Clin Exp Cardiol . 2016; 7
[4] = test system: α-Tocopherol Transfer Protein (α-TTP); set-up: method as in PMID 11271854, PMID 8632210
[5] = set-up: method as in ref 14 = [14]; PMID 27493840; doi:10.4172/2155-9880.1000434; 14. Qureshi AA , Khan DA , Saleem S , Silswal N , Trias AM , Tan B , Pharmacokinetics and bioavailability of Annatto δ-tocotrienol in healthy fed subjects . J Clin Exp Cardiol . 2015; 6 : 11 . 10.417; settings: for time of appearance in the plasma: after δ-tocotrienol administration to well-fed subjects; for Elimination of Half-life time (t1/2) / Elimination rate constant (ke) / Plasma Peak Concentration (Cmax) / Time to achieve plasma peak (Tmax): healthy fed subjects
[6] = serum, two capsules/d for 24-weeks
[7] = 0 Hr., single dose 750 mg δ-tocotrienol
[8] = 0 Hr., single dose 1000 mg δ-tocotrienol
[9] = 1 hr., single dose 750 mg δ-tocotrienol
[10] = 1 hr., single dose 1000 mg δ-tocotrienol
[11] = 2 hr., single dose 750 mg δ-tocotrienol
[12] = 2 hr., single dose 1000 mg δ-tocotrienol
[13] = 4 hr., single dose 750 mg δ-tocotrienol
[14] = 4 hr., single dose 1000 mg δ-tocotrienol
[15] = 6 hr., single dose 750 mg δ-tocotrienol
[16] = 6 hr., single dose 1000 mg δ-tocotrienol
[17] = 8 hr., single dose 750 mg δ-tocotrienol
[18] = 8 hr., single dose 1000 mg δ-tocotrienol
[19] = single dose 1000 mg δ-tocotrienol
[20] = plasma tocol after single 125 mg δ-tocotrienol dose
[21] = plasma tocol after single 250 mg δ-tocotrienol dose
[22] = plasma tocol after single 500 mg δ-tocotrienol dose
[23] = plasma tocol after single dose 750 mg δ-tocotrienol
[24] = plasma tocol after single dose 1000 mg δ-tocotrienol

SMILES: Cc1cc2nc3c(=O)[nH]c(=O)nc-3n(C[C@H](O)[C@H](O)[C@H](O)CO)c2cc1C [(−) Riboflavin, Riboflavin]
- effective dose (Pancreas cancer cells): 40 µM
- percentage of control at effective dose (Pancreas cancer cells): 67%
- value at effective dose (Pancreas cancer cells): 40.0 ± 2.0
- effective dose (Liver cancer cells): 80 µM
- percentage of control at effective dose (Liver cancer cells): 91%
- value at effective dose (Liver cancer cells): 74.0 ± 2.0
- IC50 (B-Lymphocyte cells): 80 µM
- effective dose (B-Lymphocyte cells): 20 µM
- percentage of control at IC50 dose (B-Lymphocyte cells): 55%
- percentage of control at effective dose (B-Lymphocyte cells): 69%
- value at effective dose (B-Lymphocyte cells): 19.3 ± 3.1
- effective dose (Breast cancer cells): 80 µM
- percentage of control at effective dose (Breast cancer cells): 61%
- value at effective dose (Breast cancer cells): 12.7 ± 1.5
- IC50 (Prostate cancer cells): 80 µM
- percentage of control at IC50 dose (Prostate cancer cells): 55%
- effective dose (Prostate cancer cells): 40 µM
- percentage of control at effective dose (Prostate cancer cells): 61%
- value at effective dose (Prostate cancer cells): 20.0 ± 2.0
- effect on secretion of TNF-α (TNF-α [1]): inhibition
- effective dose (T-cells (Jurkat)): 20 µM
- percentage of control at effective dose (T-cells (Jurkat)): 32%
- value at effective dose (T-cells (Jurkat)): 142.0 ± 4.4
- effect on secretion of TNF-α (TNF-α [2]): activation
- effective dose (Hela cells): 40 µM
- percentage of control at effective dose (Hela cells): 64%
- value at effective dose (Hela cells): 21.0 ± 1.0
- effective dose (Lung cancer cells): 10 µM
- percentage of control at IC50 dose (Lung cancer cells): 28%
- percentage of control at effective dose (Lung cancer cells): 23%
- value at effective dose (Lung cancer cells): 7.7 ± 2.1
- effective dose (Melanoma cells): 40 µM
- percentage of control at effective dose (Melanoma cells): 91%

SMILES: O=c1c(O)c(-c2ccc(O)c(O)c2)oc2cc(O)cc(O)c12 [Quercetin]
- IC50 (Pancreas cancer cells): 40 µM
- percentage of control at IC50 dose (Pancreas cancer cells): 45%
- effective dose (Pancreas cancer cells): 40 µM
- percentage of control at effective dose (Pancreas cancer cells): 26%
- value at effective dose (Pancreas cancer cells): 11.7 ± 0.6
- IC50 (Liver cancer cells): 20 µM
- percentage of control at IC50 dose (Liver cancer cells): 32%
- effective dose (Liver cancer cells): 40 µM
- percentage of control at effective dose (Liver cancer cells): 29%
- value at effective dose (Liver cancer cells): 24.0 ± 2.0
- IC50 (B-Lymphocyte cells): 10 µM
- effective dose (B-Lymphocyte cells): 10 µM
- percentage of control at IC50 dose (B-Lymphocyte cells): 29%
- percentage of control at effective dose (B-Lymphocyte cells): 29%
- value at effective dose (B-Lymphocyte cells): 8.0 ± 3.0
- IC50 (Breast cancer cells): 10 µM
- effective dose (Breast cancer cells): 20 µM
- percentage of control at IC50 dose (Breast cancer cells): 39%
- percentage of control at effective dose (Breast cancer cells): 27%
- value at effective dose (Breast cancer cells): 5.7 ± 0.6
- IC50 (Prostate cancer cells): 10 µM
- percentage of control at IC50 dose (Prostate cancer cells): 48%
- effective dose (Prostate cancer cells): 20 µM
- percentage of control at effective dose (Prostate cancer cells): 17%
- value at effective dose (Prostate cancer cells): 7.3 ± 1.2
- effect on secretion of TNF-α (TNF-α [1]): inhibition
- IC50 (T-cells (Jurkat)): 10 µM
- effective dose (T-cells (Jurkat)): 40 µM
- percentage of control at IC50 dose (T-cells (Jurkat)): 45%
- percentage of control at effective dose (T-cells (Jurkat)): 81%
- value at effective dose (T-cells (Jurkat)): 409.3 ± 6.4
- effect on secretion of TNF-α (TNF-α [2]): activation
- IC50 (Hela cells): 10 µM
- percentage of control at IC50 dose (Hela cells): 51%
- effective dose (Hela cells): 40 µM
- percentage of control at effective dose (Hela cells): 38%
- value at effective dose (Hela cells): 21.3 ± 1.5
- IC50 (Lung cancer cells): 10 µM
- effective dose (Lung cancer cells): 20 µM
- percentage of control at IC50 dose (Lung cancer cells): 45%
- percentage of control at effective dose (Lung cancer cells): 36%
- value at effective dose (Lung cancer cells): 11.7 ± 1.5
- IC50 (Melanoma cells): 10 µM
- effective dose (Melanoma cells): 40 µM
- percentage of control at IC50 dose (Melanoma cells): 54%
- percentage of control at effective dose (Melanoma cells): 21%

SMILES: Oc1ccc(/C=C/c2cc(O)cc(O)c2)cc1 [trans-Resveratrol]
- Fasting Glucose, Post-dose, percentage of control (pre-dose) in parentheses (people with T2DM; [6]): 94%
- MDA, Post-dose (people with T2DM; [6]): 3.49 µmol/L
- MDA, Post-dose, percentage of control (pre-dose) in parentheses (people with T2DM; [6]): 91%
- hs-CRP, Post-dose (people with T2DM; [6]): 3.28 mg/L
- hs-CRP, Post-dose, percentage of control (pre-dose) in parentheses (people with T2DM; [6]): 89%
- Fasting Glucose, Post-dose (people with T2DM; serum, two capsules/d for 24-weeks (δ-tocotrienol 250 mg, vitamin D3 5000 IU, resveratrol 250 mg per capsule)): 6.98 mmol/L
- Fasting HbA1c, Post-dose (people with T2DM; two capsules/d for 24-weeks): 7.86%
- Fasting HbA1c, Post-dose, percentage of control (pre-dose) in parentheses (people with T2DM; two capsules/d for 24-weeks): 92%
- HOMA-IR, Post-dose (people with T2DM; two capsules/d for 24-weeks): 4.98
- HOMA-IR, Post-dose, percentage of control (pre-dose) in parentheses (people with T2DM; two capsules/d for 24-weeks): 93%

Continued, in another order:

- plasma tocol level [3, 7]: 1644 ± 59 ng/mL
- plasma tocol level [3, 8]: 1817 ± 80 ng/mL
- Tmax ([3]; 750 mg and 1000 mg doses of δ-tocotrienol): 6 h
- plasma tocol level [3, 9]: 2080 ± 68 ng/mL
- plasma tocol level [3, 10]: 2025 ± 66 ng/mL
- plasma tocol level [3, 11]: 2002 ± 91 ng/mL
- plasma tocol level [3, 12]: 2115 ± 92 ng/mL
- plasma tocol level [3, 13]: 2231 ± 35 ng/mL
- plasma tocol level [3, 14]: 2228 ± 22 ng/mL
- plasma tocol level [3, 15]: 2754 ± 84 ng/mL
- plasma tocol level [3, 16]: 2915 ± 35 ng/mL
- plasma tocol level [3, 17]: 2406 ± 51 ng/mL
- plasma tocol level [3, 18]: 2139 ± 61 ng/mL
- Total tocols (sum of 0-8 h) [3, 19]: 13239 ng/mL
- time of appearance in the plasma [5]: > 2 h
- Elimination of Half-life time (t1/2) [5, 20]: 4.99 ± 069^a h
- Elimination rate constant (ke) [5, 20]: 0.237 ± 0.217^a h-1
- Plasma Peak Concentration (Cmax) [5, 20]: 1822.00 ± 48.24^a ng/mL
- Time to achieve plasma peak (Tmax) [5, 20]: 6.00 h
- Elimination of Half-life time (t1/2) [5, 21]: 4.91 ± 0.84^a h
- Elimination rate constant (ke) [5, 21]: 0.084 ± 0.008^a,b h-1
- Plasma Peak Concentration (Cmax) [5, 21]: 1931.00 ± 92.54^b ng/mL
- Time to achieve plasma peak (Tmax) [5, 21]: 6.00 h
- Elimination of Half-life time (t1/2) [5, 22]: 3.58 ± 0.67^a h
- Elimination rate constant (ke) [5, 22]: 0.081 ± 0.006^b h-1
- Plasma Peak Concentration (Cmax) [5, 22]: 2188 ± 147.61^c ng/mL
- Time to achieve plasma peak (Tmax) [5, 22]: 5.46 ± 0.93 h
SMILES: Cc1c(C)c2c(c(C)c1O)CC[C@@](C)(CCC[C@H](C)CCC[C@H](C)CCCC(C)C)O2 [α-Tocopherol]
- α-TTP mediated secretion from the liver into the circulatory system (affinity with α-TTP) [4]: 100%

- plasma tocol level [3, 7]: 241 ± 16 ng/mL
- plasma tocol level [3, 8]: 292 ± 39 ng/mL
- plasma tocol level [3, 9]: 268 ± 13 ng/mL
- plasma tocol level [3, 10]: 653 ± 42 ng/mL
- plasma tocol level [3, 11]: 278 ± 7 ng/mL
- plasma tocol level [3, 12]: 807 ± 49 ng/mL
- plasma tocol level [3, 13]: 293 ± 11 ng/mL
- plasma tocol level [3, 14]: 1125 ± 35 ng/mL
- plasma tocol level [3, 15]: 223 ± 5 ng/mL
- plasma tocol level [3, 16]: 375 ± 49 ng/mL
- plasma tocol level [3, 17]: 86 ± 16 ng/mL
- plasma tocol level [3, 18]: 309 ± 17 ng/mL
- Elimination of Half-life time (t1/2) [3, 23]: 2.21 ± 0.18^a h
- Elimination rate constant (ke) [3, 23]: 0.315 ± 0.188^a h-1
- Elimination of Half-life time (t1/2) [3, 24]: 2.15 ± 0.13^b h
- Time to achieve plasma peak (Tmax) [3, 24]: 4.00^a h
- Total tocols (sum of 0-8 h) ([3]; single dose 750 mg δ-tocotrienol): 1389 ng/mL
- Total tocols (sum of 0-8 h) [3, 19]: 3561 ng/mL
- time of appearance in the plasma [5]: > 2 h
- Elimination of Half-life time (t1/2) [5, 20]: 2.62 ± 0.81^a h
- Elimination rate constant (ke) [5, 20]: 1.234 ± 0.211^a h-1
- Plasma Peak Concentration (Cmax) [5, 20]: 139.91 ± 11.03^a ng/mL
- Time to achieve plasma peak (Tmax) [5, 20]: 2.73 ± 0.65 h
- Elimination of Half-life time (t1/2) [5, 21]: 2.89 ± 0.84^a h
- Elimination rate constant (ke) [5, 21]: 0.201 ± 0.050^b h-1
- Plasma Peak Concentration (Cmax) [5, 21]: 204.91 ± 9.47^b ng/mL
- Time to achieve plasma peak (Tmax) [5, 21]: 3.00 h
- Elimination of Half-life time (t1/2) [5, 22]: 3.71 ± 0.29^b h
- Elimination rate constant (ke) [5, 22]: 0.214 ± 0.009^b h-1
- Plasma Peak Concentration (Cmax) [5, 22]: 290.09 ± 9.84^c ng/mL
- Time to achieve plasma peak (Tmax) [5, 22]: 3.00 h
SMILES: CC(C)=CCC/C(C)=C/CC/C(C)=C/CC[C@]1(C)CCc2c(C)c(O)c(C)c(C)c2O1 [α-Tocotrienol]
- α-TTP mediated secretion from the liver into the circulatory system (affinity with α-TTP) [4]: 12%
